Experimental data from patent publication US5466716A, “Liposomal trimethylsphingosine” (The Biomembrane Institute, priority 1994, dated 1995).
Blank lines part the entries; values can stand above or below the compound they belong to.

Assays:
[1] = tested on: neutrophils; test: phagokinetic activity of neutrophils on gold sol-coated plates; assay type: cell-based, human
Description: The phagokinetic activity of neutrophils on gold sol-coated plates can be determined by a technique essentially as taught in Albrecht-Buehler (Cell, 11, 395, 1977). […] Thus, the inhibitory effect of TMS on phagokinetic activity is not dependent on cytotoxicity.
.sctn. The area swept by neutrophils was determined in photographs of the
monolayers. The regions cleared by neutrophil movement were then cut out
Phagokinetic activity was observed by tracing tracks of neutrophils moving on a glass substrate covered with gold colloid particles. The technique was described originally by Albrecht-Buehler, supra, using 3T3 and other cell lines. Briefly, 22×22 mm square glass coverslips (Corning Glass Works, Corning, N.Y.) were dipped for 1 min into 1% BSA prepared in Milli Q water. The BSA solution was prepared fresh each day and passed through 0.20 μm Nalgene filters (Nalgene Labware Division, Rochester, N.Y.).
The coverslip then was drained by touching a Kim-wipe paper towel to its edge, dipped into 100% ethanol and rapidly and completely dried in a 85° C. hot airstream. The coverslip was placed in a 3.5 cm Falcon plastic dish. Then 5.4 ml of AuCl4 H and 18 ml of 36.5 mM Na2 CO3 were added to 33 ml of distilled water and heated. Immediately after reaching the boiling point, 5.4 ml of 0.1% formaldehyde in water were added quickly and mixed. The suspension of gold particles forming a brownish color was distributed immediately onto the dish (2 ml each) and the coverslip was incubated for 2 hr at 37° C.
Particle-coated coverslips were washed in PBS, then twice in RPMI 1640 and finally put in another 3.5 cm Falcon plastic dish containing 2 ml of RPMI 1640 with glutamate and pyruvate. The coverslips were stored at 4° C. and used within 24 hr after preparation.
The freshly-purified neutrophils (1×10^4 cells/plate) were added onto the colloid-coated coverslip. TMS and other effectors were added into the medium on the plate. As a control, the solvent of the effectors (50% ethanol) was added at an equal amount. At that concentration (0.1%), ethanol brought no significant effect on neutrophil activities. To observe cell recovery from exposure to the effectors, neutrophils (2×10^5 cells/ml) were pre-incubated at 37° C. with 12 μM of TMS, SPN and DMS, then distributed to the dish dropwise, diluting the effectors 200-fold. Incubation was conducted under 5% CO2 at 37° C. for 2 hr and terminated by adding 200 μl of 10% formaldehyde. Microscopic examination of each plate was performed with a Nikon microscope, connected to a Polaroid camera for recordings. Phagokinetic activity was measured by tracing the track of a neutrophil. The track was recorded with photographs, then the area was measured by cutting and weighing there swept area.

[2] = tested on: neutrophils; test: neutrophil transmigration through HUVEC monolayer; assay type: cell-based, human; conditions: for neutrophil transmigration (number of cells transmigrated): Table II, control 100, 90 min
Description: (§1) A characteristic of neutrophils is the ability to adhere to activiated EC's and to migrate through the EC monolayer into the vascular or extravascular matrix. The effect of TMS on neutrophil interactions with EC's and their subsequent trans-endothelial migration thereof can be monitored in vitro using human umbilical endothelial cells (HUVEC's) (Luscinskas et al., J. Imm., 146, 1617, 1991). Neutrophils are added to a HUVEC monolayer and neutrophil-HUVEC interactions are assessed microscopically following fixation, embedding and staining of monolayer sections.
Cross-sections (2 μm) of the collagen bed with HUVEC's and neutrophils
were observed using a Zeiss light microscope with KPL W10 ahd Ph2 Neoflua
16 lenses. The number of cells transmigrated were counted for each view.
(§2) HUVEC's and culture media were purchased from Cell Systems (Kirkland, Wash.). The cells were maintained and cultured as described in Luscinskas et al., supra, with some modifications. Briefly, HUVEC's were maintained in 10 ml tissue culture flasks on a collagen type I bed obtained from rat tail (Upstate Biotechnology Inc, Lake Placid, N.Y.) with CS-complete medium, CS-growth factor and CS-AF-1 (Cell Systems). Cells became confluent within 2 to 4 days when incubated in 5% CO2 at 37° C.
For the transmigration assay, thick gels were formed in 24-well tissue culture plates. Preparation of the gel solution was carried out at 4° C. Eight parts of collagen solution (Vitrogen 100, from bovine tendon which contained less than 5 ng/ml endotoxin; Celtrix Labs, Palo Alto, Calif.), one part of 10×RPMI and one part of alkaline solution (2.2 g NaHCO3 in 100 ml of 0.05N NaOH and 200 mM HEPES) were mixed gently and distributed at 0.7 ml/well. The solution was left for 4 hr at 37° C. to eliminate air bubbles, then allowed to gel in a 37° C. oven for 3 hr. The wells were washed with 1.0 ml of CS-complete medium with attachment factors at least 4 times and every 3 to 6 hr during further incubation at 37° C. in 5% CO2.
HUVEC's at a passage level of less than 3 were detached from 10 ml tissue culture flasks with 3 ml of Trypsin-EDTA at 37° C. for 30 to 60 sec. Immediately, 3 ml of M199 with 20% heat-inactivated FCS was added. Cells were collected by centrifugation. The pellet was resuspended in 10 ml of CS-complete medium with attachment factors. Homogeneous cell suspensions were plated at 0.7 ml to each well and the plates were incubated for 3 hr at 37° C. The supernatant, which contains dead cells, was aspirated carefully and fresh complete medium with attachment factors was added.
The HUVEC monolayer in 24-well tissue culture plates were washed with M199 without FCS, then incubated with 1 ml/well of IL-1β (Boehringer Mannheim Biochemical Products, Indianapolis, Ind.) dissolved in M199 with 1% heat-inactivated FCS (HIFCS) at 10 U/ml. The plates were incubated at 37° C., 5% CO2 for 4 hr then washed gently with 1 ml of M199. The purified neutrophil suspension (1.5×10^6 cells/ml) in M199 containing 1% HIFCS was pre-incubated with TMS, or other effectors, for 10 min at 37° C. After aspirating the media in the well, 0.5 ml of the neutrophil suspension were added onto the HUVEC monolayer. The tissue culture plate was incubated for 90 min at 37° C.
The culture was terminated by gently aspirating the cell suspension, adding 1 ml of 10% formaldehyde in PBS and stored at 4° C. overnight for fixation. The edge of the collagen bed was cut with a small spatula along the wall 2 hr before removal from the well. The collagen bed, which has HUVEC's on the surface and transmigrated neutrophils within was embedded in paraffin, sectioned and followed by staining with hematoxylin-eosin for microscopic examination.

[3] = neutrophil viability (trypan blue exclusion); assay type: cell-based, human; conditions: neutrophils, Table III, control 94
Description: (§3) The viability was evaluated by trypan blue exclusion assay. The cell
(§4) incubated at 37° C. for 10 min with effectors. The aliquot was
(§5) mixed with an equal amount of trypan blue solution and immediately counte
(§6) under a Nikon light microscope.

[4] = tested on: HUVEC's; test: morphologic damage to endothelial cells (HUVEC's); assay type: cell-based, human; conditions: staurosporine 2 μM, calphostin C 5 μM
Description: as §1, §2
The HUVEC monolayer in 24-well tissue culture plates were washed with M199 without FCS, then incubated with 1 ml/well of IL-1β (Boehringer Mannheim Biochemical Products, Indianapolis, Ind.) dissolved in M199 with 1% heat-inactivated FCS (HIFCS) at 10 U/ml. The plates were incubated at 37° C., 5% CO2 for 4 hr then washed gently with 1 ml of M199. […]

[5] = water solubility; assay type: physicochemical; conditions: particularly at physiologic pH
Description: For comparison purposes those same test cells also are exposed to sphingosine and N,N-dimethylsphingosine.

[6] = tested on: GMP-140; test: GMP-140 expression on platelets (flow cytometry, mAb AC1.2); assay type: cell-based, human
Description: FIGS. 11A and 11B depict results of representative experiments assessing the percentage of platelets capable of binding an anti-GMP-140 antibody following exposure to various agents. The percentage binding activity was determined in a flow cytometer. SPN is sphingosine; H-7 is 1-(5-isoquinolinylsulfonyl)-2-methylpiperazine; Cal is calphostin-C; TMS is trimethylsphingosine; and DMS is dimethylsphingosine.
GMP-140 expression was determined by (i) flow cytometry with mAb AC1.2, which is directed to GMP-140 and obtained from Dr. Furie (Tufts Univ. Sch. Med., Boston, Mass.) and (ii) adhesion of HL60 cells on platelet-coated solid phase.
A suspension of platelets (1×10^8 /ml) in Tyrode's buffer was preincubated with inhibitor at pH 7.2, 37° C., for 5 minutes, then supplemented with activator, either thrombin (final concentration 1 U/ml) or phorbol 12-myristate 13-acetate (PMA (final concentration 10^-7 M), and the mixture was incubated at 37° C. for 10 minutes. Platelets were fixed with an equal volume of 2% (w/v) paraformaldehyde in PBS and washed 2 times with PBS containing 1% (w/v) BSA.
The paraformaldehyde-fixed platelets were incubated with 50 μl of mAb AC1.2 (2.5 μg/ml) at room temperature for 30 minutes. Platelets were washed 2 times with PBS containing 1% (w/v) BSA, supplemented with 50 μl of fluorescein isothiocyanate-labeled goat anti-mouse Ig (purchased from Tago Co., Burlingame, Calif.), incubated at room temperature for 30 minutes and again washed 2 times with PBS containing 1% (w/v) BSA. As a negative control, paraformaldehyde-fixed platelets were incubated with mouse IgG instead of mAb AC1.2 and treated as described above.
The platelets were analyzed in an Epics flow cytometer (Coulter Corp.) with suitable gating. To calculate the inhibitory effect of various reagents, the mean fluorescence intensity of resting platelets (obtained on incubation of platelets without activator) was subtracted from the value for the activated platelet sample.

[7] = tested on: protein kinase-C; conditions: in vitro, Tamaoki & Nakano; cited from earlier work
[8] = tested on: neutrophils; test: neutrophil viability (trypan blue exclusion); assay type: cell-based, human; conditions: Table V, 37° C., 10 min, in % (unit assumed)
Description: as §3, §4, §5, §6

[9] = tested on: phosphoinositide turnover; test: fMLP-induced phosphoinositide turnover in neutrophils (32P incorporation); assay type: cell-based, human; conditions: Table VI, 1 μM fMLP alone, control 100
Description: Amount of ^32 P in PIP and PIP2 was measured using TLC separation. The spots on TLC plates were scraped off and the radioactivity therein was measured with a Beckman scintillation counter. Each spot was compared as to intensity with the identical spot of the control sample.
After incubation, the cells were washed and resuspended in the same buffer at a concentration of 1×10^7 cells/ml. Each suspension (1 ml) then was pretreated with TMS, SPN or DMS, or equal volume of 50% ethanol, for 10 min at 37° C. Then keeping the same temperature, fMLP was added to a final concentration of 1.0 μM. Two minutes later, the reaction was terminated by adding 3.75 ml of chloroform/methanol (1:2) to each cell suspension, followed by sonication for 15 min. An additional 1.25 ml of chloroform, 1.25 ml of water and 50 μl of acetone were added and the total mixture was mixed and left overnight.
Following centrifugation of the mixture, the phospholipids were extracted by Folch's partition method, taking the lower phase from the cell lysate. […] The TLC plate was developed with control phospholipids, in a solvent comprising chloroform/methanol/4M NaOH at a ratio of 45:35:10 and containing 0.1% CDTA (trans-1,2-diaminocyclohexane-N,N,N',N'-tetraacetic acid) for 65 min at 37° C. The bands were identified by staining the control phospholipids with primuline and visualization under ultraviolet light. Autoradiography was performed with Kodak diagnostic film GBX-2 (Rochester N.Y.) by exposing overnight at 37° C.

[10] = Homo sapiens, Neutrophil, 2 h, read-out: Area Swept
[11] = Homo sapiens, Neutrophil, 1.5 h, read-out: Number of Cells/View

Compound: CN[C@@H]1C[C@H]2O[C@@](C)([C@@H]1OC)n1c3ccccc3c3c4c(c5c6ccccc6n2c5c31)C(=O)NC4 [Staurosporine]
- activity at 0.2 µM [1, 10]: 13 ± 12%
- activity at 2 µM [2, 11]: 52 ± 25%
- viability at 10 min, 2 µM ([3]; 2 μM): 83 ± 3.6%
- morphologic damage to EC's [4]: striking morphologic damage to EC's

- water solubility [5]: less water soluble
Compound: CCCCCCCCCCCCC/C=C/[C@@H](O)[C@H](CO)NC [N-monomethylsphingosine]

Compound: CC1CNCCN1S(=O)(=O)c1cccc2cnccc12 (stereo not shown) [H-7, 1-(5-isoquinolinylsulfonyl)-2-methylpiperazine]
- inhibition of GMP-140 expression ([6]; PMA-induced, FIG. 11B): Neither SPN nor H-7 showed inhibition
- inhibition of GMP-140 expression ([6]; thrombin-induced, FIG. 11A): no inhibition
- activity at 200 µM [1, 10]: 27 ± 6%
- concentration reported to inhibit protein kinase-C [7]: 15 µM
- activity at 200 µM [2, 11]: 38 ± 12%
- viability at 10 min, 200 µM ([3]; 200 μM): 79 ± 7.1%

Compound: Ceramide
- Area Swept ([1]; Table I, 4.5 μM, control 100, 120 min): 109 ± 25%
- neutrophil transmigration (number of cells transmigrated) ([2]; 4 μM): 92 ± 24
- neutrophil transmigration (number of cells transmigrated) ([2]; 15 μM): 87 ± 27
- neutrophil transmigration (number of cells transmigrated) ([2]; 45 μM): 83 ± 16
- Viability of neutrophils ([8]; 5 μM): 98 ± 2
- Viability of neutrophils ([8]; 15 μM): 96 ± 1
- Viability of neutrophils ([8]; 45 μM): 91 ± 3

Compound: CSCC[C@H](NC=O)C(=O)N[C@@H](CC(C)C)C(=O)N[C@@H](Cc1ccccc1)C(=O)O [fMLP, formyl-methionyl-leucyl-phenylalanine, reference compound]
- PIP labeling [9]: 182 ± 39
